Test results taken from ChEMBL document CHEMBL1140040, “Synthesis and cytotoxic activity of some novel polycyclic gamma-butyrolactones” (Bioorg Med Chem Lett, 2008).

How the values were obtained:
[1] = tested on: COLO 205; assay: Cytotoxicity against human COLO205 cells assessed as age growth inhibition at 20 uM after 48 hrs by sulforhodamine B assay; assay type: functional; conditions: COLO 205, 48 h, read-out: GI
[2] = tested on: IGROV-1; assay: Cytotoxicity against human IGROV1 cells assessed as age growth inhibition at 20 uM after 48 hrs by sulforhodamine B assay; assay type: functional; conditions: IGROV-1, 48 h, read-out: GI
[3] = tested on: SK-OV-3; assay: Cytotoxicity against human SKOV3 cells assessed as age growth inhibition at 20 uM after 48 hrs by sulforhodamine B assay; assay type: functional; conditions: SK-OV-3, 48 h, read-out: GI
[4] = tested on: DU-145; assay: Cytotoxicity against human DU145 cells assessed as age growth inhibition at 20 uM after 48 hrs by sulforhodamine B assay; assay type: functional; conditions: DU-145, 48 h, read-out: GI
[5] = tested on: HEp-2; assay: Cytotoxicity against human HEP2 cells assessed as age growth inhibition at 20 uM after 48 hrs by sulforhodamine B assay; assay type: functional; conditions: HEp-2, 48 h, read-out: GI
[6] = tested on: SF-295; assay: Cytotoxicity against human SF295 cells assessed as age growth inhibition at 20 uM after 48 hrs by sulforhodamine B assay; assay type: functional; conditions: SF-295, 48 h, read-out: GI
[7] = tested on: A549; assay: Cytotoxicity against human A549 cells assessed as age growth inhibition at 20 uM after 48 hrs by sulforhodamine B assay; assay type: functional; conditions: A549, 48 h, read-out: GI
[8] = tested on: HOP-62; assay: Cytotoxicity against human HOP62 cells assessed as age growth inhibition at 20 uM after 48 hrs by sulforhodamine B assay; assay type: functional; conditions: HOP-62, 48 h, read-out: GI
[9] = tested on: HCT-15; assay: Cytotoxicity against human HCT15 cells assessed as age growth inhibition at 20 uM after 48 hrs by sulforhodamine B assay; assay type: functional; conditions: HCT-15, 48 h, read-out: GI
[10] = tested on: COLO 205; assay: Cytotoxicity against human COLO205 cells assessed as age growth inhibition at 50 uM after 48 hrs by sulforhodamine B assay; assay type: functional; conditions: COLO 205, 48 h, read-out: GI
[11] = tested on: COLO 205; assay: Cytotoxicity against human COLO205 cells assessed as age growth inhibition at 100 uM after 48 hrs by sulforhodamine B assay; assay type: functional; conditions: COLO 205, 48 h, read-out: GI
[12] = tested on: IGROV-1; assay: Cytotoxicity against human IGROV1 cells assessed as age growth inhibition at 10 uM after 48 hrs by sulforhodamine B assay; assay type: functional; conditions: IGROV-1, 48 h, read-out: GI
[13] = tested on: IGROV-1; assay: Cytotoxicity against human IGROV1 cells assessed as age growth inhibition at 50 uM after 48 hrs by sulforhodamine B assay; assay type: functional; conditions: IGROV-1, 48 h, read-out: GI
[14] = tested on: IGROV-1; assay: Cytotoxicity against human IGROV1 cells assessed as age growth inhibition at 100 uM after 48 hrs by sulforhodamine B assay; assay type: functional; conditions: IGROV-1, 48 h, read-out: GI
[15] = tested on: SK-OV-3; assay: Cytotoxicity against human SKOV3 cells assessed as age growth inhibition at 10 uM after 48 hrs by sulforhodamine B assay; assay type: functional; conditions: SK-OV-3, 48 h, read-out: GI
[16] = tested on: SK-OV-3; assay: Cytotoxicity against human SKOV3 cells assessed as age growth inhibition at 50 uM after 48 hrs by sulforhodamine B assay; assay type: functional; conditions: SK-OV-3, 48 h, read-out: GI
[17] = tested on: SK-OV-3; assay: Cytotoxicity against human SKOV3 cells assessed as age growth inhibition at 100 uM after 48 hrs by sulforhodamine B assay; assay type: functional; conditions: SK-OV-3, 48 h, read-out: GI
[18] = tested on: DU-145; assay: Cytotoxicity against human DU145 cells assessed as age growth inhibition at 10 uM after 48 hrs by sulforhodamine B assay; assay type: functional; conditions: DU-145, 48 h, read-out: GI
[19] = tested on: DU-145; assay: Cytotoxicity against human DU145 cells assessed as age growth inhibition at 50 uM after 48 hrs by sulforhodamine B assay; assay type: functional; conditions: DU-145, 48 h, read-out: GI
[20] = tested on: DU-145; assay: Cytotoxicity against human DU145 cells assessed as age growth inhibition at 100 uM after 48 hrs by sulforhodamine B assay; assay type: functional; conditions: DU-145, 48 h, read-out: GI
[21] = tested on: HEp-2; assay: Cytotoxicity against human HEP2 cells assessed as age growth inhibition at 10 uM after 48 hrs by sulforhodamine B assay; assay type: functional; conditions: HEp-2, 48 h, read-out: GI
[22] = tested on: HEp-2; assay: Cytotoxicity against human HEP2 cells assessed as age growth inhibition at 50 uM after 48 hrs by sulforhodamine B assay; assay type: functional; conditions: HEp-2, 48 h, read-out: GI
[23] = tested on: HEp-2; assay: Cytotoxicity against human HEP2 cells assessed as age growth inhibition at 100 uM after 48 hrs by sulforhodamine B assay; assay type: functional; conditions: HEp-2, 48 h, read-out: GI
[24] = tested on: SF-295; assay: Cytotoxicity against human SF295 cells assessed as age growth inhibition at 10 uM after 48 hrs by sulforhodamine B assay; assay type: functional; conditions: SF-295, 48 h, read-out: GI
[25] = tested on: SF-295; assay: Cytotoxicity against human SF295 cells assessed as age growth inhibition at 50 uM after 48 hrs by sulforhodamine B assay; assay type: functional; conditions: SF-295, 48 h, read-out: GI
[26] = tested on: SF-295; assay: Cytotoxicity against human SF295 cells assessed as age growth inhibition at 100 uM after 48 hrs by sulforhodamine B assay; assay type: functional; conditions: SF-295, 48 h, read-out: GI
[27] = tested on: A549; assay: Antiproliferative activity against human A549 cells after 48 hrs by sulforhodamine B assay; assay type: functional, cell-based; conditions: A549, 48 h
[28] = tested on: HOP-62; assay: Antiproliferative activity against human HOP62 cells after 48 hrs by sulforhodamine B assay; assay type: functional, cell-based; conditions: HOP-62, 48 h
[29] = tested on: HCT-15; assay: Antiproliferative activity against human HCT15 cells after 48 hrs by sulforhodamine B assay; assay type: functional, cell-based; conditions: HCT-15, 48 h
[30] = tested on: COLO 205; assay: Antiproliferative activity against human COLO205 cells after 48 hrs by sulforhodamine B assay; assay type: functional, cell-based; conditions: COLO 205, 48 h
[31] = tested on: IGROV-1; assay: Antiproliferative activity against human IGROV1 cells after 48 hrs by sulforhodamine B assay; assay type: functional, cell-based; conditions: IGROV-1, 48 h
[32] = tested on: SK-OV-3; assay: Antiproliferative activity against human SKOV3 cells after 48 hrs by sulforhodamine B assay; assay type: functional, cell-based; conditions: SK-OV-3, 48 h
[33] = tested on: DU-145; assay: Antiproliferative activity against human DU145 cells after 48 hrs by sulforhodamine B assay; assay type: functional, cell-based; conditions: DU-145, 48 h
[34] = tested on: HEp-2; assay: Antiproliferative activity against human HEP2 cells after 48 hrs by sulforhodamine B assay; assay type: functional, cell-based; conditions: HEp-2, 48 h
[35] = tested on: SF-295; assay: Antiproliferative activity against human SF295 cells after 48 hrs by sulforhodamine B assay; assay type: functional, cell-based; conditions: SF-295, 48 h
[36] = tested on: A549; assay: Cytotoxicity against human A549 cells assessed as age growth inhibition at 10 uM after 48 hrs by sulforhodamine B assay; assay type: functional; conditions: A549, 48 h, read-out: GI
[37] = tested on: A549; assay: Cytotoxicity against human A549 cells assessed as age growth inhibition at 50 uM after 48 hrs by sulforhodamine B assay; assay type: functional; conditions: A549, 48 h, read-out: GI
[38] = tested on: A549; assay: Cytotoxicity against human A549 cells assessed as age growth inhibition at 100 uM after 48 hrs by sulforhodamine B assay; assay type: functional; conditions: A549, 48 h, read-out: GI
[39] = tested on: HOP-62; assay: Cytotoxicity against human HOP62 cells assessed as age growth inhibition at 10 uM after 48 hrs by sulforhodamine B assay; assay type: functional; conditions: HOP-62, 48 h, read-out: GI
[40] = tested on: HOP-62; assay: Cytotoxicity against human HOP62 cells assessed as age growth inhibition at 50 uM after 48 hrs by sulforhodamine B assay; assay type: functional; conditions: HOP-62, 48 h, read-out: GI
[41] = tested on: HOP-62; assay: Cytotoxicity against human HOP62 cells assessed as age growth inhibition at 100 uM after 48 hrs by sulforhodamine B assay; assay type: functional; conditions: HOP-62, 48 h, read-out: GI
[42] = tested on: HCT-15; assay: Cytotoxicity against human HCT15 cells assessed as age growth inhibition at 10 uM after 48 hrs by sulforhodamine B assay; assay type: functional; conditions: HCT-15, 48 h, read-out: GI
[43] = tested on: HCT-15; assay: Cytotoxicity against human HCT15 cells assessed as age growth inhibition at 50 uM after 48 hrs by sulforhodamine B assay; assay type: functional; conditions: HCT-15, 48 h, read-out: GI
[44] = tested on: HCT-15; assay: Cytotoxicity against human HCT15 cells assessed as age growth inhibition at 100 uM after 48 hrs by sulforhodamine B assay; assay type: functional; conditions: HCT-15, 48 h, read-out: GI
[45] = tested on: COLO 205; assay: Cytotoxicity against human COLO205 cells assessed as age growth inhibition at 10 uM after 48 hrs by sulforhodamine B assay; assay type: functional; conditions: COLO 205, 48 h, read-out: GI

O=c1[nH]cc(F)c(=O)[nH]1 [FLUOROURACIL]
inhibition of growth at 20 µM [1]: 27% | inhibition of growth at 20 µM [2]: 29% | inhibition of growth at 20 µM [3]: 46% | inhibition of growth at 20 µM [4]: 29% | inhibition of growth at 20 µM [5]: 77% | inhibition of growth at 20 µM [6]: 11% | inhibition of growth at 20 µM [7]: 57% | inhibition of growth at 20 µM [8]: 37% | inhibition of growth at 20 µM [9]: 30%

CC1(C)CCC[C@@]2(C)C1=C[C@H]1C(=O)O[C@H](c3ccco3)[C@H]12
inhibition of growth at 50 µM [10]: 20% | inhibition of growth at 100 µM [11]: 64% | inhibition of growth at 10 µM [12]: 1% | inhibition of growth at 50 µM [13]: 24% | inhibition of growth at 100 µM [14]: 67% | inhibition of growth at 10 µM [15]: 6% | inhibition of growth at 50 µM [16]: 9% | inhibition of growth at 100 µM [17]: 57% | inhibition of growth at 10 µM [18]: 17% | inhibition of growth at 50 µM [19]: 37% | inhibition of growth at 100 µM [20]: 76% | inhibition of growth at 10 µM [21]: 8% | inhibition of growth at 50 µM [22]: 19% | inhibition of growth at 100 µM [23]: 52% | inhibition of growth at 10 µM [24]: 0% | inhibition of growth at 50 µM [25]: 17% | inhibition of growth at 100 µM [26]: 38% | IC50 [27]: > 100 µM | IC50 [28]: > 100 µM | IC50 [29]: 50 µM | IC50 [30]: 79.5 µM | IC50 [31]: 79.2 µM | IC50 [32]: 91 µM | IC50 [33]: 63.3 µM | IC50 [34]: 98.8 µM | IC50 [35]: > 100 µM | inhibition of growth at 10 µM [36]: 19% | inhibition of growth at 50 µM [37]: 20% | inhibition of growth at 100 µM [38]: 25% | inhibition of growth at 10 µM [39]: 2% | inhibition of growth at 50 µM [40]: 8% | inhibition of growth at 100 µM [41]: 46% | inhibition of growth at 10 µM [42]: 14% | inhibition of growth at 50 µM [43]: 50% | inhibition of growth at 100 µM [44]: 56% | inhibition of growth at 10 µM [45]: 16%
